Assay results published in patent publication US7396837B2, “Antitumoral analogs of lamellarins” (Pharma Mar, S.A.U., priority 2002, dated 2008).

Experiments:
[1] = tested on: PANC-1; experiment: SRB colorimetric cell growth inhibition assay, PANC-1; format: cell-based; conditions: Homo sapiens
Procedure, shortened: (§1)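 In this cytotoxicity screen, compound stays in contact with the cultured human cancer cells without washout; sulforhodamine B binding gives the measure of cell number, and endpoints separate growth inhibition from cytostasis (TGI) and killing (LC).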

[2] = tested on: K-562; experiment: SRB colorimetric cell growth inhibition assay, K-562; format: cell-based; conditions: Homo sapiens
Procedure, shortened: as §1

[3] = tested on: SK-BR-3; experiment: SRB colorimetric cell growth inhibition assay, SK-BR-3; format: cell-based; conditions: Homo sapiens
Procedure, shortened: as §1

[4] = tested on: LNCaP; experiment: SRB colorimetric cell growth inhibition assay, LNCaP; format: cell-based; conditions: Homo sapiens, LNCaP
Procedure, shortened: as §1

[5] = target: T1, human topoisomerase I (Homo sapiens, UniProt P11387); experiment: Topoisomerase I DNA relaxation assay (supercoiled plasmid DNA); format: biochemical; conditions: supercoiled plasmid DNA, each compound tested at 1 μM, agarose gel with ethidium bromide
T1 sequence (P11387 1-765): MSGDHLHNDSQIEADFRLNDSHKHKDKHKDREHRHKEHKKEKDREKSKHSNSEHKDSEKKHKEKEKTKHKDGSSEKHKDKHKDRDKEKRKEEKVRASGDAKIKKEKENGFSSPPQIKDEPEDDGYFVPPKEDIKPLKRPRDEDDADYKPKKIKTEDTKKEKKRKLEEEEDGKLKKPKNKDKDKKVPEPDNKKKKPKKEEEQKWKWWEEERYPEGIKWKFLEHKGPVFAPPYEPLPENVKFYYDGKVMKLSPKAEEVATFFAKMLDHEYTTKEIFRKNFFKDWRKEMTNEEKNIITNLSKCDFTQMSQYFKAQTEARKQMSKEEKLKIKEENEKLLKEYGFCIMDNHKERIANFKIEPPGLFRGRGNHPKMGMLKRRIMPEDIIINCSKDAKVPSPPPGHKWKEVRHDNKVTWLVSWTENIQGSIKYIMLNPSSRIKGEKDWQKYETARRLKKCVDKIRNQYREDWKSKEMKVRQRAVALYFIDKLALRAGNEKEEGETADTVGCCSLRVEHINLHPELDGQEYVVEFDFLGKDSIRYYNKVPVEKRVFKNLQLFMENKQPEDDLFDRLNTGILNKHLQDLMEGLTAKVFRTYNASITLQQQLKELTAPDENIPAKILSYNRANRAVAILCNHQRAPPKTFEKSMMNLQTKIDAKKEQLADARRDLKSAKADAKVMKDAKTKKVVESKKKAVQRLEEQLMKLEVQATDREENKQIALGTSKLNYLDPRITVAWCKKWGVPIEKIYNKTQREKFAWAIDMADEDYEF
Procedure, shortened: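 Test compounds (1 μM each) were present during topoisomerase I relaxation of supercoiled plasmid DNA. Relaxation was assessed on ethidium bromide-stained agarose gels.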

[6] = tested on: A-549; experiment: SRB colorimetric cell growth inhibition assay, A-549; format: cell-based; conditions: Homo sapiens
Procedure, shortened: as §1

[7] = tested on: LoVo-Dox; experiment: SRB colorimetric cell growth inhibition assay, LoVo-Dox (MDR); format: cell-based; conditions: Homo sapiens
Procedure, shortened: as §1

[8] = tested on: IGROV-ET; experiment: SRB colorimetric cell growth inhibition assay, IGROV-ET (ET-743 resistant); format: cell-based; conditions: Homo sapiens
Procedure, shortened: as §1

[9] = tested on: DU-145; experiment: SRB colorimetric cell growth inhibition assay, DU-145; format: cell-based; conditions: Homo sapiens
Procedure, shortened: as §1

[10] = tested on: IGROV; experiment: SRB colorimetric cell growth inhibition assay, IGROV; format: cell-based; conditions: Homo sapiens, IGROV
Procedure, shortened: as §1

[11] = tested on: LoVo; experiment: SRB colorimetric cell growth inhibition assay, LoVo; format: cell-based; conditions: Homo sapiens, LoVo
Procedure, shortened: as §1

[12] = tested on: HT-29; experiment: SRB colorimetric cell growth inhibition assay, HT-29; format: cell-based; conditions: Homo sapiens
Procedure, shortened: as §1

[13] = tested on: SK-MEL-28; experiment: SRB colorimetric cell growth inhibition assay, SK-MEL-28; format: cell-based; conditions: Homo sapiens
Procedure, shortened: as §1

How did the GI50 ([1]; PANC-1, PANC-1, GI=growth inhibition, read-out: GI50 PANC-1) turn out when COc1cc(-c2c3c4cc(OC)c(O)cc4oc(=O)c3n3ccc4cc(O)c(OC)cc4c23)ccc1O [Compound 3, lamellarin D, reference compound] was run?
The GI50 was 248 nM.

What about the IC (TGI) ([1]; PANC-1, PANC-1, total growth inhibition (cytostatic effect), read-out: TGI PANC-1) of the same molecule?
Its IC (TGI) is 2200 nM.

What about the CC50 ([1]; PANC-1, read-out: LC50 PANC-1, PANC-1, cell killing (cytotoxic effect)) of the same molecule?
Its CC50 is 20000 nM.

And the GI50 ([2]; K562, K-562, GI=growth inhibition, read-out: GI50 K-562)?
Its GI50 is 86.9 nM.

And the IC (TGI) ([2]; K562, K-562, total growth inhibition (cytostatic effect), read-out: TGI K-562)?
The IC (TGI) was 791 nM.

What about the CC50 ([2]; K562, read-out: LC50 K-562, K-562, cell killing (cytotoxic effect)) of the same molecule?
The CC50 was 8150 nM.

And the GI50 ([3]; SK-BR-3, SK-BR-3, GI=growth inhibition, read-out: GI50 SK-BR-3)?
The GI50 was 106 nM.

And the IC (TGI) ([3]; SK-BR-3, SK-BR-3, total growth inhibition (cytostatic effect), read-out: TGI SK-BR-3)?
The IC (TGI) was 767 nM.

What about the CC50 ([3]; SK-BR-3, read-out: LC50 SK-BR-3, SK-BR-3, cell killing (cytotoxic effect)) of the same molecule?
The CC50 was 7690 nM.

What about the GI50 ([4]; LN-caP, GI=growth inhibition, read-out: GI50 LN-caP) of the same molecule?
Its GI50 is 123 nM.

And the IC (TGI) ([4]; LN-caP, total growth inhibition (cytostatic effect), read-out: TGI LN-caP)?
The IC (TGI) was 398 nM.

What about the CC50 ([4]; read-out: LC50 LN-caP, LN-caP, cell killing (cytotoxic effect)) of the same molecule?
Its CC50 is 1060 nM.

And the “stimulation of DNA cleavage by topoisomerase I / inhibition of topoisomerase I (nicked DNA band) in DNA relaxation assay” value [5]?
Its value is “significantly amplified”.

What about the GI50 ([6]; A549, A-549, GI=growth inhibition, read-out: GI50 A-549) of the same molecule?
Its GI50 is 20.4 nM.

What about the IC (TGI) ([6]; A549, A-549, total growth inhibition (cytostatic effect), read-out: TGI A-549) of the same molecule?
Its IC (TGI) is 1140 nM.

And the CC50 ([6]; A549, read-out: LC50 A-549, A-549, cell killing (cytotoxic effect))?
The CC50 was 15500 nM.

What about the GI50 ([7]; LOVO-DOX, GI=growth inhibition, read-out: GI50 LOVO-DOX) of the same molecule?
Its GI50 is 420 nM.

And the IC (TGI) ([7]; LOVO-DOX, total growth inhibition (cytostatic effect), read-out: TGI LOVO-DOX)?
The IC (TGI) was 1670 nM.

And the CC50 ([7]; read-out: LC50 LOVO-DOX, LOVO-DOX, cell killing (cytotoxic effect))?
Its CC50 is 20000 nM.

What about the GI50 ([8]; IGROV-ET, GI=growth inhibition, read-out: GI50 IGROV-ET) of the same molecule?
Its GI50 is 214 nM.

What about the IC (TGI) ([8]; IGROV-ET, total growth inhibition (cytostatic effect), read-out: TGI IGROV-ET) of the same molecule?
The IC (TGI) was 1160 nM.

What about the CC50 ([8]; read-out: LC50 IGROV-ET, IGROV-ET, cell killing (cytotoxic effect)) of the same molecule?
The CC50 was 20000 nM.

What about the GI50 ([9]; DU-145, DU-145, GI=growth inhibition, read-out: GI50 DU-145) of the same molecule?
The GI50 was 19 nM.

And the IC (TGI) ([9]; DU-145, DU-145, total growth inhibition (cytostatic effect), read-out: TGI DU-145)?
Its IC (TGI) is 79.7 nM.

And the CC50 ([9]; DU-145, read-out: LC50 DU-145, DU-145, cell killing (cytotoxic effect))?
The CC50 was 20000 nM.

What about the CC50 ([10]; read-out: LC50 IGROV, IGROV, cell killing (cytotoxic effect)) of the same molecule?
Its CC50 is 20000 nM.

And the GI50 ([10]; GI=growth inhibition, read-out: GI50 IGROV)?
Its GI50 is 236 nM.

And the IC (TGI) ([10]; total growth inhibition (cytostatic effect), read-out: TGI IGROV)?
The IC (TGI) was 1060 nM.

What about the CC50 ([11]; read-out: LC50 LOVO, LOVO, cell killing (cytotoxic effect)) of the same molecule?
The CC50 was 2000 nM.

And the GI50 ([11]; GI=growth inhibition, read-out: GI50 LOVO)?
Its GI50 is 398 nM.

What about the IC (TGI) ([11]; total growth inhibition (cytostatic effect), read-out: TGI LOVO) of the same molecule?
The IC (TGI) was 965 nM.

What about the GI50 ([12]; HT-29, HT-29, GI=growth inhibition, read-out: GI50 HT-29) of the same molecule?
Its GI50 is 5330 nM.

And the IC (TGI) ([12]; HT-29, HT-29, total growth inhibition (cytostatic effect), read-out: TGI HT-29)?
Its IC (TGI) is 19000 nM.

And the CC50 ([12]; HT-29, read-out: LC50 HT-29, HT-29, cell killing (cytotoxic effect))?
Its CC50 is 20000 nM.

What about the GI50 ([13]; SK-MEL-28, MEL-28, GI=growth inhibition, read-out: GI50 MEL-28) of the same molecule?
The GI50 was 88.1 nM.

What about the IC (TGI) ([13]; SK-MEL-28, MEL-28, total growth inhibition (cytostatic effect), read-out: TGI MEL-28) of the same molecule?
The IC (TGI) was 1770 nM.

What about the CC50 ([13]; SK-MEL-28, read-out: LC50 MEL-28, MEL-28, cell killing (cytotoxic effect)) of the same molecule?
The CC50 was 11300 nM.
